For the experiment, the target named is Human indoleamine 2,3-dioxygenasae (IDO) (Homo sapiens (Human), UniProt P14902). Put plainly: Human indoleamine 2,3-dioxygenasae (IDO) enzyme assay. The following applies: read-out: IDO IC50. The class given is biochemical. An excerpt: Human indoleamine 2,3-dioxygenasae (IDO) enzyme assay: Human indoleamine 2,3-dioxygenasae (IDO) with an N-terminal His tag was expressed in E. coli and purified to homogeneity. IDO catalyzes the oxidative cleavage of the pyrrole ring of the indole nucleus of tryptophan to yield N′-formylkynurenine.
Sequence of Human indoleamine 2,3-dioxygenasae (IDO) (P14902 whole entry): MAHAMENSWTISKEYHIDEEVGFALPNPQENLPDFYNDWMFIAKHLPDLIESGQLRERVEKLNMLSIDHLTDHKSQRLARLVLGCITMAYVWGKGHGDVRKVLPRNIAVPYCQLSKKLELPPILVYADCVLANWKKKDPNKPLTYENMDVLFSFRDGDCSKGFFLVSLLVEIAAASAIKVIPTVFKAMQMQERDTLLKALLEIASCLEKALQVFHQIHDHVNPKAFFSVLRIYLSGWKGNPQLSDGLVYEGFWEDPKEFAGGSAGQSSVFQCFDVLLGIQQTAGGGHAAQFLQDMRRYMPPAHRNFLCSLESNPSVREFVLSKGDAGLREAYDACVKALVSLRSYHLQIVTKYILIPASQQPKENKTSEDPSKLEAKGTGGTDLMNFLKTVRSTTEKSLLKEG
IC50 data are from the IDO enzyme assay described above.

By IC50 is commonly meant the concentration needed to halve the response being measured.

In the case of `NS(=O)(=O)NCCCNc1nonc1C(=NO)Nc1ccc(F)c(Br)c1` [Example 3, 4-({3-[(Aminosulfonyl)amino]propyl}amino)-N-(3-bromo-4-fluorophenyl)-N′-hydroxy-1,2,5-oxadiazole-3-carboximidamide], the concentration for half-maximal inhibition (IC50) was below 100 nM.
Then `CS(=O)(=O)NCCCNc1nonc1C(=NO)Nc1ccc(F)c(Br)c1` [Example 4, N-(3-Bromo-4-fluorophenyl)-N′-hydroxy-4-({3-[(methylsulfonyl)amino]propyl}amino)-1,2,5-oxadiazole-3-carboximidamide], with below 100 nM; and `NS(=O)(=O)NCCNc1nonc1C(=NO)Nc1ccc(F)c(Cl)c1` [Example 5, 4-({2-[(Aminosulfonyl)amino]ethyl}amino)-N-(3-chloro-4-fluorophenyl)-N′-hydroxy-1,2,5-oxadiazole-3-carboximidamide], with below 200 nM.
For the compound `CS(=O)(=O)NCCNc1nonc1C(=NO)Nc1ccc(F)c(Cl)c1` [Example 6, N-(3-Chloro-4-fluorophenyl)-N′-hydroxy-4-({2-[(methylsulfonyl)amino]ethyl}amino)-1,2,5-oxadiazole-3-carboximidamide], the IC50 is below 200 nM.
Regarding `NS(=O)(=O)NCCCNc1nonc1C(=NO)Nc1ccc(F)c(Cl)c1` [Example 7, 4-({3-[(Aminosulfonyl)amino]propyl}amino)-N-(3-chloro-4-fluorophenyl)-N′-hydroxy-1,2,5-oxadiazole-3-carboximidamide], the IC50 is below 200 nM.
As to `CS(=O)(=O)NCCCNc1nonc1C(=NO)Nc1ccc(F)c(Cl)c1` [Example 8, N-(3-Chloro-4-fluorophenyl)-N′-hydroxy-4-({3-[(methylsulfonyl)amino]propyl}amino)-1,2,5-oxadiazole-3-carboximidamide], the 50% inhibitory concentration (IC50) was below 200 nM.
Take `NS(=O)(=O)NCCNc1nonc1C(=NO)Nc1ccc(F)c(C(F)(F)F)c1` [Example 9, 4-({2-[(Aminosulfonyl)amino]ethyl}amino)-N-[4-fluoro-3-(trifluoromethyl)phenyl]-N′-hydroxy-1,2,5-oxadiazole-3-carboximidamide]: the IC50 was below 100 nM.
Turning to `CS(=O)(=O)NCCNc1nonc1C(=NO)Nc1ccc(F)c(C(F)(F)F)c1` [Example 10, N-[4-Fluoro-3-(trifluoromethyl)phenyl]-N′-hydroxy-4-({2-[(methylsulfonyl)amino]ethyl}amino)-1,2,5-oxadiazole-3-carboximidamide], the half-inhibitory concentration (IC50) is below 100 nM.
As for `NS(=O)(=O)NCCCNc1nonc1C(=NO)Nc1ccc(F)c(C(F)(F)F)c1` [Example 11, 4-({3-[(Aminosulfonyl)amino]propyl}amino)-N-[4-fluoro-3-(trifluoromethyl)phenyl]-N′-hydroxy-1,2,5-oxadiazole-3-carboximidamide], the IC50 is below 100 nM.
Then `CS(=O)(=O)NCCCNc1nonc1C(=NO)Nc1ccc(F)c(C(F)(F)F)c1` [Example 12, N-[4-Fluoro-3-(trifluoromethyl)phenyl]-N′-hydroxy-4-({3-[(methylsulfonyl)amino]propyl}amino)-1,2,5-oxadiazole-3-carboximidamide], with below 100 nM; and `NS(=O)(=O)NCCNc1nonc1C(=NO)Nc1cccc(C(F)(F)F)c1` [Example 13, 4-({2-[(Aminosulfonyl)amino]ethyl}amino)-N′-hydroxy-N-[3-(trifluoromethyl)phenyl]-1,2,5-oxadiazole-3-carboximidamide], with below 500 nM.
Then `CS(=O)(=O)NCCNc1nonc1C(=NO)Nc1cccc(C(F)(F)F)c1` [Example 14, N′-Hydroxy-4-({2-[(methylsulfonyl)amino]ethyl}amino)-N-[3-(trifluoromethyl)phenyl]-1,2,5-oxadiazole-3-carboximidamide], with below 200 nM; and `NS(=O)(=O)NCCCNc1nonc1C(=NO)Nc1cccc(C(F)(F)F)c1` [Example 15, 4-({3-[(Aminosulfonyl)amino]propyl}amino)-N′-hydroxy-N-[3-(trifluoromethyl)phenyl]-1,2,5-oxadiazole-3-carboximidamide], with below 200 nM.

(Values after patent US10034939B2, “Synergistic combination of immunologic inhibitors for the treatment of cancer” (The University of Chicago, priority 2012, dated 2018).)
